Assay results published in PMC8480901 (PLoS ONE, 2021).
Values joined by “and” are separate entries in the source; they are usually repeats but may differ in a detail not shown here. Equal entries are not always repeated.

Test system: J774.2 mouse macrophages
Assay: LPS-induced cytokine and chemokine levels in J774.2 mouse macrophage cell supernatant (ELISA)
Format: cell-based
Conditions: for CXCL1 % reduction / CXCL1 [pg/mL] Mean / CXCL2 % reduction / CXCL2 [pg/mL] Mean / MMP9 % reduction / MMP9 [pg/mL] Mean: J774.2 cells; for CXCL1 % reduction / CXCL1 [pg/mL] Mean / CXCL2 % reduction / CXCL2 [pg/mL] Mean / MMP9 % reduction / MMP9 [pg/mL] Mean / CCl2, % reduction / CCl2, Mean / GM-CSF % reduction / GM-CSF Mean / IL-1β % reduction / IL-1β Mean / IL-6 % reduction / IL-6 Mean / TNF-α % reduction / TNF-α Mean / CCl2 / CXCL1 / GM-CSF / IL-1β / IL-6 / TNF-α: LPS; for CCl2, % reduction / CCl2, Mean / GM-CSF % reduction / GM-CSF Mean / IL-1β % reduction / IL-1β Mean / IL-6 % reduction / IL-6 Mean / TNF-α % reduction / TNF-α Mean / CCl2 / CXCL1 / GM-CSF / IL-1β / IL-6 / TNF-α: J774.2 supernatant; for CCl2 / CXCL1 / GM-CSF / IL-1β / IL-6 / TNF-α: individual replicate

## C=C[C@]1(C)C[C@@H](OC(=O)CS[C@@H]2CC[C@@H](N)C[C@H]2O)[C@]2(C)[C@H](C)CC[C@]3(CCC(=O)[C@H]32)[C@@H](C)[C@@H]1O [Lefamulin]
Compound 0.03 µM
  CXCL1 % reduction: -4.29%
  CXCL1 [pg/mL] Mean: 27 pg/mL
  CXCL2 % reduction: 3%
  CXCL2 [pg/mL] Mean: 31653 pg/mL
  MMP9 % reduction: 2.7%
  MMP9 [pg/mL] Mean: 939 pg/mL
Compound 0.1 µM
  CXCL1 % reduction: 0.477%
  CXCL1 [pg/mL] Mean: 25 pg/mL
  CXCL2 % reduction: 7%
  CXCL2 [pg/mL] Mean: 30382 pg/mL
  MMP9 % reduction: 16%
  MMP9 [pg/mL] Mean: 819 pg/mL
Compound 0.3 µM
  CXCL1 % reduction: -4.29%
  CXCL1 [pg/mL] Mean: 27 pg/mL
  CXCL2 % reduction: 0.626%
  CXCL2 [pg/mL] Mean: 32419 pg/mL
  MMP9 % reduction: 14%
  MMP9 [pg/mL] Mean: 840 pg/mL
Compound 1 µM
  CXCL1 % reduction: -0.703%
  CXCL1 [pg/mL] Mean: 26 pg/mL
  CXCL2 % reduction: -10%
  CXCL2 [pg/mL] Mean: 35898 pg/mL
  MMP9 % reduction: 2.38%
  MMP9 [pg/mL] Mean: 942 pg/mL
Compound 3 µM
  CXCL1 % reduction: -7.61%
  CXCL1 [pg/mL] Mean: 28 pg/mL
  CXCL2 % reduction: -7%
  CXCL2 [pg/mL] Mean: 34917 pg/mL
  MMP9 % reduction: 7%
  MMP9 [pg/mL] Mean: 900 pg/mL
Compound 10 µM
  CXCL1 % reduction: -36%
  CXCL1 [pg/mL] Mean: 35 pg/mL
  CXCL2 % reduction: -7%
  CXCL2 [pg/mL] Mean: 34821 pg/mL
  MMP9 % reduction: 14%
  MMP9 [pg/mL] Mean: 838 pg/mL
Compound 30 µM
  CXCL1 % reduction: -238%
  CXCL1 [pg/mL] Mean: 87 pg/mL
  CXCL2 % reduction: -16%
  CXCL2 [pg/mL] Mean: 37862 pg/mL
  MMP9 % reduction: 60%
  MMP9 [pg/mL] Mean: 423 pg/mL
Compound 100 µM
  CXCL1 % reduction: -827%
  CXCL1 [pg/mL] Mean: 237 pg/mL
  CXCL2 % reduction: -16%
  CXCL2 [pg/mL] Mean: 37744 pg/mL
  MMP9 % reduction: 96%
  MMP9 [pg/mL] Mean: 91 pg/mL
J774.2 macrophages
  IL-6 and IL-1β levels in supernatant: trend toward reduction
J774.2 mouse macrophages, concentrations tested (0.03 to 10 μM shown)
  levels of the measured LPS-induced cytokines, chemokines, or MMP-9 in supernatants: little to no reduction
0.03 µM
  CCl2, % reduction: 1.79%
  CCl2, Mean: 35400 pg/mL
  GM-CSF % reduction: 52%
  GM-CSF Mean: 672 pg/mL
  IL-1β % reduction: -26%
  IL-1β Mean: 241 pg/mL
  IL-6 % reduction: -14%
  IL-6 Mean: 88112 pg/mL
  TNF-α % reduction: -16%
  TNF-α Mean: 1587 pg/mL
  CCl2: 33453 pg/mL and 37346.9 pg/mL
  CXCL1: 25.7 pg/mL and 27.7 pg/mL
  GM-CSF: 625.6 pg/mL and 719.3 pg/mL
  IL-1β: 233.691 pg/mL and 247.723 pg/mL
  IL-6: 83483 pg/mL and 92741 pg/mL
  TNF-α: 1586.9 pg/mL and 1587.5 pg/mL
0.1 µM
  CCl2, % reduction: 8%
  CCl2, Mean: 33260 pg/mL
  GM-CSF % reduction: 50%
  GM-CSF Mean: 691 pg/mL
  IL-1β % reduction: -10%
  IL-1β Mean: 209 pg/mL
  IL-6 % reduction: -11%
  IL-6 Mean: 85917 pg/mL
  TNF-α % reduction: -16%
  TNF-α Mean: 1579 pg/mL
  CCl2: 30882.1 pg/mL and 35637.1 pg/mL
  CXCL1: 26.3 pg/mL and 24.7 pg/mL
  GM-CSF: 718.9 pg/mL and 663.8 pg/mL
  IL-1β: 208.032 pg/mL and 210.141 pg/mL
  IL-6: 86925 pg/mL and 84909 pg/mL
  TNF-α: 1571.9 pg/mL and 1586.9 pg/mL
0.3 µM
  CCl2, % reduction: 0.431%
  CCl2, Mean: 35870 pg/mL
  GM-CSF % reduction: 54%
  GM-CSF Mean: 647 pg/mL
  IL-1β % reduction: -6%
  IL-1β Mean: 202 pg/mL
  IL-6 % reduction: -13%
  IL-6 Mean: 87246 pg/mL
  TNF-α % reduction: -8.54%
  TNF-α Mean: 1483 pg/mL
  CCl2: 32973.5 pg/mL and 38766.3 pg/mL
  CXCL1: 24.9 pg/mL and 28.5 pg/mL
  GM-CSF: 644.4 pg/mL and 648.8 pg/mL
  IL-1β: 202.166 pg/mL and 201.189 pg/mL
  IL-6: 86199 pg/mL and 88294 pg/mL
